Earlier results on two compounds are cited in patent US12648914B2, “Injectable sustained release composition and method of using the same for treating inflammation in joints and pain associated therewith” (priority 2013, dated 2026).

For series [1] the following is noted: reported, Möllmann et al. 1998, after inhaled administration.
For series [2] the following is noted: human subjects, 40 mg.

Broadly, the EC50 is the midpoint of the concentration-response curve. `CCC(=O)O[C@]1(C(=O)SCF)[C@H](C)C[C@H]2[C@@H]3C[C@H](F)C4=CC(=O)C=C[C@]4(C)[C@@]3(F)[C@@H](O)C[C@@]21C` [fluticasone propionate]: in series [1], the half-maximal effective concentration (EC50) was 0.007 to 0.03 ng/mL.

In the case of `CC(C)(C)CC(=O)OCC(=O)[C@@]12OC(C)(C)O[C@@H]1C[C@H]1[C@@H]3CCC4=CC(=O)C=C[C@]4(C)[C@@]3(F)[C@@H](O)C[C@@]12C` [triamcinolone hexacetonide], the “release profile after intra-articular administration” value in series [2] was “significant initial burst followed by rapid decline”.
